In article PMC5053573, “Structure-Based Design of Tetrahydroisoquinoline-7-carboxamides as Selective Discoidin Domain Receptor 1 (DDR1) Inhibitors” (Journal of Medicinal Chemistry, 2016):

Experiments:
Assay in all cases: biochemical
JNK3 = target: T1, JNK3 (Homo sapiens, UniProt P53779); details: read-out: %Ctrl @ 1000nM
T1 construct: gene MAPK10

GRK4 = GRK4 (Homo sapiens, UniProt P32298); details: read-out: %Ctrl @ 1000nM
SNARK = target: T2, SNARK (Homo sapiens, UniProt Q9H093); details: read-out: %Ctrl @ 1000nM
T2 construct: gene NUAK2

CLK4 = CLK4 (Homo sapiens, UniProt Q9HAZ1); details: read-out: %Ctrl @ 1000nM
NEK9 = NEK9 (Homo sapiens, UniProt Q8TD19); details: read-out: %Ctrl @ 1000nM
NEK9, sequence (Q8TD19 whole entry): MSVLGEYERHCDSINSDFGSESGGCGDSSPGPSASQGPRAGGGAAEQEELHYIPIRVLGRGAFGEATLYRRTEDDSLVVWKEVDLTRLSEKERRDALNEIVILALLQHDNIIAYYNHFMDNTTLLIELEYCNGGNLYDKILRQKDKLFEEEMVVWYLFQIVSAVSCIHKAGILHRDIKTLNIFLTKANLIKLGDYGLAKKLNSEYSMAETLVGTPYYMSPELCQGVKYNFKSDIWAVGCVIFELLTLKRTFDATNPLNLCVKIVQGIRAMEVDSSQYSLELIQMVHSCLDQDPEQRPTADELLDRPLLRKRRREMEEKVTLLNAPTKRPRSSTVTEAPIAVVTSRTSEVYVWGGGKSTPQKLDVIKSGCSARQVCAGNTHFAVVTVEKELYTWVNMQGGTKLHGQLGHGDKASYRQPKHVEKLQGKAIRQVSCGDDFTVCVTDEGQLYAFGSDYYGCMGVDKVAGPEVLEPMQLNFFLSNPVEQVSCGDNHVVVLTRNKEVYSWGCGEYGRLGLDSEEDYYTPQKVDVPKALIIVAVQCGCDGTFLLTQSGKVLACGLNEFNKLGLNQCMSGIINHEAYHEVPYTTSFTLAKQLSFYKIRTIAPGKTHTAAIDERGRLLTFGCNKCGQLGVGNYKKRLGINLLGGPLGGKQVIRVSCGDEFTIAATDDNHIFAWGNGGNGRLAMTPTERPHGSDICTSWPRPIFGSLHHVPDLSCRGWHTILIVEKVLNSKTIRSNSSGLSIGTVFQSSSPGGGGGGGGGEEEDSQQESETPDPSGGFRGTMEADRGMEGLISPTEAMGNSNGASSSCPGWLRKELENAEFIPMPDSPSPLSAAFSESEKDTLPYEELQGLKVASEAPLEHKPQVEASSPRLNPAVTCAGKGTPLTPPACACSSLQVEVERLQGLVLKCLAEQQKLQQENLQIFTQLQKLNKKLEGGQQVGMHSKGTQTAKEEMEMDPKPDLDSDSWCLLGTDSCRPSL

DDR2 = DDR2 (Homo sapiens, UniProt Q16832); details: read-out: %Ctrl @ 1000nM
PKN1 = PKN1 (Homo sapiens, UniProt Q16512); details: read-out: %Ctrl @ 1000nM
[1] = target: ABL1(M351T)-phosphorylated (Homo sapiens, UniProt P00519, M351T); details: read-out: %Ctrl @ 1000nM
CDKL2 = CDKL2 (Homo sapiens, UniProt Q92772); details: read-out: %Ctrl @ 1000nM
EPHA8 = EPHA8 (Homo sapiens, UniProt P29322); details: read-out: %Ctrl @ 1000nM
ASK1 = target: T3, ASK1 (Homo sapiens, UniProt Q99683); details: read-out: %Ctrl @ 1000nM
T3 construct: gene MAP3K5

PFTK1 = target: T4, PFTK1 (Homo sapiens, UniProt O94921); details: read-out: %Ctrl @ 1000nM
T4 construct: gene CDK14

EIF2AK1 = EIF2AK1 (Homo sapiens, UniProt Q9BQI3); details: read-out: %Ctrl @ 1000nM
EIF2AK1, sequence (Q9BQI3 whole entry): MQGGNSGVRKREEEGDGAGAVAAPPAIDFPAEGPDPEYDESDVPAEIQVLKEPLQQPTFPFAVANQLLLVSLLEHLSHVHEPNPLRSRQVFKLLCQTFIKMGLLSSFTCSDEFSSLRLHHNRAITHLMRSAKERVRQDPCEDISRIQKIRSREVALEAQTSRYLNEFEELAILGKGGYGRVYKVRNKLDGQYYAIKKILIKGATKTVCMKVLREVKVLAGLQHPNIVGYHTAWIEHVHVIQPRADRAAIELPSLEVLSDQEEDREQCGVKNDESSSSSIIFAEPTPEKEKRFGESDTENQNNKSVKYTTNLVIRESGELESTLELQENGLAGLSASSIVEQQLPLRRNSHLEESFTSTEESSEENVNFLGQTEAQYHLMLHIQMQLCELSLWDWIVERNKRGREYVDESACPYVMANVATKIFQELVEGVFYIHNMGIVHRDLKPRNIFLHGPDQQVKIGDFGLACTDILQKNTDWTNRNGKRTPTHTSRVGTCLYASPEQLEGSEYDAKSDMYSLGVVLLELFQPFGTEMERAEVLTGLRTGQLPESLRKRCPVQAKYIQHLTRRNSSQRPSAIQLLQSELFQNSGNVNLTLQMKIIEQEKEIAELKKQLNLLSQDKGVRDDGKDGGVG

BMPR2 = BMPR2 (Homo sapiens, UniProt Q13873); details: read-out: %Ctrl @ 1000nM
p38-delta = target: T5, p38-delta (Homo sapiens, UniProt O15264); details: read-out: %Ctrl @ 1000nM
T5 construct: gene MAPK13

MUSK = MUSK (Homo sapiens, UniProt O15146); details: read-out: %Ctrl @ 1000nM
CDC2L2 = target: T6, CDC2L2 (Homo sapiens, UniProt Q9UQ88); details: read-out: %Ctrl @ 1000nM
T6 construct: gene CDK11A

NDR1 = target: T7, NDR1 (Homo sapiens, UniProt Q15208); details: read-out: %Ctrl @ 1000nM
T7 construct: gene STK38

HASPIN = HASPIN (Homo sapiens, UniProt Q8TF76); details: read-out: %Ctrl @ 1000nM
CAMK1 = CAMK1 (Homo sapiens, UniProt Q14012); details: read-out: %Ctrl @ 1000nM
TLK2 = TLK2 (Homo sapiens, UniProt Q86UE8); details: read-out: %Ctrl @ 1000nM
ICK = target: T8, ICK (Homo sapiens, UniProt Q9UPZ9); details: read-out: %Ctrl @ 1000nM
T8 construct: gene CILK1

OSR1 = target: T9, OSR1 (Homo sapiens, UniProt O95747); details: read-out: %Ctrl @ 1000nM
T9 construct: gene OXSR1

EGFR(S752-I759del) = EGFR(S752-I759del) (Homo sapiens, UniProt P00533, DEL752-759); details: read-out: %Ctrl @ 1000nM
MST1 = target: T10, MST1 (Homo sapiens, UniProt Q13043); details: read-out: %Ctrl @ 1000nM
T10 construct: gene STK4

MYLK4 = MYLK4 (Homo sapiens, UniProt Q86YV6); details: read-out: %Ctrl @ 1000nM
FRK = FRK (Homo sapiens, UniProt P42685); details: read-out: %Ctrl @ 1000nM
FRK, sequence (P42685 whole entry): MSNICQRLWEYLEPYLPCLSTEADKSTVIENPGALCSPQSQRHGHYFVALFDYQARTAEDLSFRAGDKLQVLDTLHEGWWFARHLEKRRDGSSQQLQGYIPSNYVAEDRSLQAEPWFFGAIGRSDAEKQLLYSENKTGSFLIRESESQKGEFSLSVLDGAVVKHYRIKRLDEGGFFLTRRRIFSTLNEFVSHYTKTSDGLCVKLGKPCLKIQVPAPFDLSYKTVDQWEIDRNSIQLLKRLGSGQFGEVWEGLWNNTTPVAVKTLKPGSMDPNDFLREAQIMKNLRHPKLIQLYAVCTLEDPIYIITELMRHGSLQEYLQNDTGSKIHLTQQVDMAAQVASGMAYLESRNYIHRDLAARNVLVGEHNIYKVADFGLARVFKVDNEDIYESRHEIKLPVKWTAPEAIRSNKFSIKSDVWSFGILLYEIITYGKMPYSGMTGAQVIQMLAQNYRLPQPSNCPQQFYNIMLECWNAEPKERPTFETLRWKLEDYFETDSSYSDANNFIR

MAPKAPK5 = MAPKAPK5 (Homo sapiens, UniProt Q8IW41); details: read-out: %Ctrl @ 1000nM
[2] = target: T11, RSK2(Kin.Dom.1-N-terminal) (Homo sapiens, UniProt P51812); details: read-out: %Ctrl @ 1000nM
T11 construct: gene RPS6KA3

MYO3A = MYO3A (Homo sapiens, UniProt Q8NEV4); details: read-out: %Ctrl @ 1000nM
MYO3A, sequence (Q8NEV4 whole entry): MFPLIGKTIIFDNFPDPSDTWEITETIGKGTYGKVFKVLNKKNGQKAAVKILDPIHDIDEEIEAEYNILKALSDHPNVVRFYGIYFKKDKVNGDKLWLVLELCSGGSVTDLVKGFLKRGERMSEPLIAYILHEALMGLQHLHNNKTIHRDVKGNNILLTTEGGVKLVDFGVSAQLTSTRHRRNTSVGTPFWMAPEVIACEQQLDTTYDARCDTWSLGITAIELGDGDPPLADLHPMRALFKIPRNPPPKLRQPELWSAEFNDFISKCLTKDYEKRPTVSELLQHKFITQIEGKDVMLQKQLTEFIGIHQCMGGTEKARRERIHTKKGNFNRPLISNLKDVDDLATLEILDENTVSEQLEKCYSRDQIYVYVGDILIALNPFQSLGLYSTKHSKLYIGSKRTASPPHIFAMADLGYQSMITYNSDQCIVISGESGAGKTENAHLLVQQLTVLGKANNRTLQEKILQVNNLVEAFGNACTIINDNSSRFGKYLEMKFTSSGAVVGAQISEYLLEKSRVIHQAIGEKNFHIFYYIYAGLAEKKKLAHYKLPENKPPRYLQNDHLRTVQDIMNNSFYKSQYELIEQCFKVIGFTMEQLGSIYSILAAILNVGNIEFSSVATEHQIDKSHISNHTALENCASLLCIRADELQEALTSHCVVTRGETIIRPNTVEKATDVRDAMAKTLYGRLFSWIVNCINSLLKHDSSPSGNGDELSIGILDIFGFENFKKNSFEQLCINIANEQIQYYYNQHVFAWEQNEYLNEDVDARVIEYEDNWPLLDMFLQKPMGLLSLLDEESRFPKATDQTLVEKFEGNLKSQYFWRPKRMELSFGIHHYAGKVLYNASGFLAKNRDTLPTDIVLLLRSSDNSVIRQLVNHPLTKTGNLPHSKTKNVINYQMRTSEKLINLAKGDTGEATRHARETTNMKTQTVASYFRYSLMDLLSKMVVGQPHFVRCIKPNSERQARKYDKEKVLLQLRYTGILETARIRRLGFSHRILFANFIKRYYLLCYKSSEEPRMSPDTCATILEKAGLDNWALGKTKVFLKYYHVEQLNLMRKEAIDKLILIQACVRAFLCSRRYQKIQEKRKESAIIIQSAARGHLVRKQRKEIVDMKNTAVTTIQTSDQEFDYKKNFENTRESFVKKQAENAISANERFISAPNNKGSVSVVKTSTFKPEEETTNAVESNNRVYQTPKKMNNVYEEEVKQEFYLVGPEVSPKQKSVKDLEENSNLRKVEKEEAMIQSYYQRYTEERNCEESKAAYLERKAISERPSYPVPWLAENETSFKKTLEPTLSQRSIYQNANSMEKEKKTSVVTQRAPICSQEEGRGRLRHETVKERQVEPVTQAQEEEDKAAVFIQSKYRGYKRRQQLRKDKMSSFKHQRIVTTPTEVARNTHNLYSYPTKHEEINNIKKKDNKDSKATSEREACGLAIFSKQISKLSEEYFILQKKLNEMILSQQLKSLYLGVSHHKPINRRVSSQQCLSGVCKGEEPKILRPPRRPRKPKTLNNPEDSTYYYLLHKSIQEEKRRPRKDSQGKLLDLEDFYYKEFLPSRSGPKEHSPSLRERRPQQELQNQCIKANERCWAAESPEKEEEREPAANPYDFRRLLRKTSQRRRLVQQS

ABL2 = ABL2 (Homo sapiens, UniProt P42684); details: read-out: %Ctrl @ 1000nM
TNK1 = TNK1 (Homo sapiens, UniProt Q13470); details: read-out: %Ctrl @ 1000nM
DYRK2 = DYRK2 (Homo sapiens, UniProt Q92630); details: read-out: %Ctrl @ 1000nM
DYRK2, sequence (Q92630 whole entry): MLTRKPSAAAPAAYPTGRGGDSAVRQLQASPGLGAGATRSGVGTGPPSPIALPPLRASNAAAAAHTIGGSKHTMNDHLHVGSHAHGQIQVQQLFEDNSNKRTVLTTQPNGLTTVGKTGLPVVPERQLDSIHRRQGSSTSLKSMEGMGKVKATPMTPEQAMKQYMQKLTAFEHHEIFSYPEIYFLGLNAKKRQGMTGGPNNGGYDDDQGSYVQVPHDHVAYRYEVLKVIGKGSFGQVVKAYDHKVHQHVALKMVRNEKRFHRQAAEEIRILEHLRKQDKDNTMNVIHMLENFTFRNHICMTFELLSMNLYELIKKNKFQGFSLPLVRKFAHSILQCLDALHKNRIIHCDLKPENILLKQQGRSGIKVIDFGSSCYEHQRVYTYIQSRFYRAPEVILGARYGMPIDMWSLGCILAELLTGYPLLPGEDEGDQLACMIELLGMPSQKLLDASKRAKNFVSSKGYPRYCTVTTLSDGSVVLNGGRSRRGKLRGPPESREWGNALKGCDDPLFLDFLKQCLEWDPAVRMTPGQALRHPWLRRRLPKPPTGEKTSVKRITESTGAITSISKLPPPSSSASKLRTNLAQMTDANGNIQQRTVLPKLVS

PIK3CA = PIK3CA (Homo sapiens, UniProt P42336); details: read-out: %Ctrl @ 1000nM
LTK = LTK (Homo sapiens, UniProt P29376); details: competition binding; read-out: %Ctrl @ 1000nM

T1 sequence (P53779 whole entry): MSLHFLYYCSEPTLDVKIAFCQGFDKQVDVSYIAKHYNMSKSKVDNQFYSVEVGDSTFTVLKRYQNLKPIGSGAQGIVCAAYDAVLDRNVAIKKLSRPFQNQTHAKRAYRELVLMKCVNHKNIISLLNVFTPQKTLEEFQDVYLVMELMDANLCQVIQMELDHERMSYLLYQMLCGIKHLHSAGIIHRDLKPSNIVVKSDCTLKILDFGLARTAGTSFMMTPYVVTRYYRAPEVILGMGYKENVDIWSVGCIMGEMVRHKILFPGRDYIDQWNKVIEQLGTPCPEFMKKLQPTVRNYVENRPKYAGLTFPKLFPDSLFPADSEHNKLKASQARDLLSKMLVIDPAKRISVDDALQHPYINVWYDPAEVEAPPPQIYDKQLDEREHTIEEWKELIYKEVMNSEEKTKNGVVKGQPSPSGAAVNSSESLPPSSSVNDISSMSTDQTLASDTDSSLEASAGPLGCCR

remaining activity at 1 µM (JNK3): 100% | remaining activity at 1 µM (GRK4): 100% | remaining activity at 1 µM (SNARK): 100% | remaining activity at 1 µM (CLK4): 96% | remaining activity at 1 µM (DDR2): 0.35% | remaining activity at 1 µM (PKN1): 100% | remaining activity at 1 µM [1]: 72% | remaining activity at 1 µM (CDKL2): 93% | remaining activity at 1 µM (EPHA8): 21% | remaining activity at 1 µM (ASK1): 92% | remaining activity at 1 µM (PFTK1): 94% | remaining activity at 1 µM (EIF2AK1): 92% | remaining activity at 1 µM (BMPR2): 100% | remaining activity at 1 µM (p38-delta): 70% | remaining activity at 1 µM (MUSK): 31% | remaining activity at 1 µM (CDC2L2): 97% | remaining activity at 1 µM (NDR1): 98% | remaining activity at 1 µM (HASPIN): 100% | remaining activity at 1 µM (CAMK1): 84% | remaining activity at 1 µM (TLK2): 98% | remaining activity at 1 µM (ICK): 100% | remaining activity at 1 µM (OSR1): 100% | remaining activity at 1 µM (EGFR(S752-I759del)): 82% | remaining activity at 1 µM (MST1): 85% | remaining activity at 1 µM (MYLK4): 100% | remaining activity at 1 µM (FRK): 63% | remaining activity at 1 µM (MAPKAPK5): 100% | remaining activity at 1 µM [2]: 100% | remaining activity at 1 µM (MYO3A): 93% | remaining activity at 1 µM (ABL2): 46% | remaining activity at 1 µM (TNK1): 79% | remaining activity at 1 µM (DYRK2): 100% | remaining activity at 1 µM (PIK3CA): 100% | remaining binding at 1 µM (LTK): 73%
Structure (SMILES): Cc1cn(-c2cc(NC(=O)c3ccc4c(c3)CN(c3cncnc3)C[C@@H]4C)cc(C(F)(F)F)c2)cn1 [Compound 6j]
remaining activity at 1 µM (NEK9): 85%
